Data from ChEMBL document CHEMBL1201862, “PubChem BioAssay data set” (2004).
Active and inactive are the calls of the source.

Columns and labels:
[1] = target: T1, Corticotropin-releasing factor receptor 2/Corticotropin-releasing factor-binding protein (Homo sapiens, UniProt P24387+Q13324); assay: activators of CRF receptor 2 with binding protein – uHTS hits, confirmation (AID 602473); format: functional; conditions: read-out: EC50_Mean
T1 sequence (Q13324 whole entry): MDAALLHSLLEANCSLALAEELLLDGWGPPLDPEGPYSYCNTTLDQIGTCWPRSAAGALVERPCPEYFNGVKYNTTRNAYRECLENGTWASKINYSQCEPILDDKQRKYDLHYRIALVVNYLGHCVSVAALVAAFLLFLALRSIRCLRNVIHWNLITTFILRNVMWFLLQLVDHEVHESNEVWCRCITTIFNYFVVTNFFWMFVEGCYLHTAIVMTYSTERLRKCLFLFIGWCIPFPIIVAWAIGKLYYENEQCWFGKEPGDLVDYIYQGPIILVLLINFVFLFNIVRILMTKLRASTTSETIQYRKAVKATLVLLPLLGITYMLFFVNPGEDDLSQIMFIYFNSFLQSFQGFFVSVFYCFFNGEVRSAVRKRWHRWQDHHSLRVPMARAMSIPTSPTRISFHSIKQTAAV
T1 sequence (P24387 whole entry): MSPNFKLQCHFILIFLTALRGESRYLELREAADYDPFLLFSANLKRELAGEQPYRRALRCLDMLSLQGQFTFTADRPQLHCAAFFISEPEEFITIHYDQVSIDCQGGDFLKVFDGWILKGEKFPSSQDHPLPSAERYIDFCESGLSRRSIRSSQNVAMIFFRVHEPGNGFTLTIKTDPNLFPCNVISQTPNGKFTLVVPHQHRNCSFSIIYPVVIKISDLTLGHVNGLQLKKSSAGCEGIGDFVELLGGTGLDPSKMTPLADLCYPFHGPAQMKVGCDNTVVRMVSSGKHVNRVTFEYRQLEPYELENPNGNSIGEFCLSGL

[2] = target: T1, Corticotropin-releasing factor receptor 2/Corticotropin-releasing factor-binding protein; assay: Dose Response confirmation of uHTS hits for small molecule antagonists of the CRF-binding protein and CRF-R2 receptor complex.; format: functional; conditions: read-out: IC50_Mean
Fatty acid synthase [3] = target: T2, Fatty acid synthase (Homo sapiens, UniProt P49327); assay: inhibition of human FAS-TE enzyme activity – biochemical, endpoint fluorescence intensity, uHTS hits, dose response (AID 624327); format: functional;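 note: fluorescence from hydrolysis of an O-methyl fluorescein acyl ester substrate by the enzyme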
T2 sequence (P49327 whole entry): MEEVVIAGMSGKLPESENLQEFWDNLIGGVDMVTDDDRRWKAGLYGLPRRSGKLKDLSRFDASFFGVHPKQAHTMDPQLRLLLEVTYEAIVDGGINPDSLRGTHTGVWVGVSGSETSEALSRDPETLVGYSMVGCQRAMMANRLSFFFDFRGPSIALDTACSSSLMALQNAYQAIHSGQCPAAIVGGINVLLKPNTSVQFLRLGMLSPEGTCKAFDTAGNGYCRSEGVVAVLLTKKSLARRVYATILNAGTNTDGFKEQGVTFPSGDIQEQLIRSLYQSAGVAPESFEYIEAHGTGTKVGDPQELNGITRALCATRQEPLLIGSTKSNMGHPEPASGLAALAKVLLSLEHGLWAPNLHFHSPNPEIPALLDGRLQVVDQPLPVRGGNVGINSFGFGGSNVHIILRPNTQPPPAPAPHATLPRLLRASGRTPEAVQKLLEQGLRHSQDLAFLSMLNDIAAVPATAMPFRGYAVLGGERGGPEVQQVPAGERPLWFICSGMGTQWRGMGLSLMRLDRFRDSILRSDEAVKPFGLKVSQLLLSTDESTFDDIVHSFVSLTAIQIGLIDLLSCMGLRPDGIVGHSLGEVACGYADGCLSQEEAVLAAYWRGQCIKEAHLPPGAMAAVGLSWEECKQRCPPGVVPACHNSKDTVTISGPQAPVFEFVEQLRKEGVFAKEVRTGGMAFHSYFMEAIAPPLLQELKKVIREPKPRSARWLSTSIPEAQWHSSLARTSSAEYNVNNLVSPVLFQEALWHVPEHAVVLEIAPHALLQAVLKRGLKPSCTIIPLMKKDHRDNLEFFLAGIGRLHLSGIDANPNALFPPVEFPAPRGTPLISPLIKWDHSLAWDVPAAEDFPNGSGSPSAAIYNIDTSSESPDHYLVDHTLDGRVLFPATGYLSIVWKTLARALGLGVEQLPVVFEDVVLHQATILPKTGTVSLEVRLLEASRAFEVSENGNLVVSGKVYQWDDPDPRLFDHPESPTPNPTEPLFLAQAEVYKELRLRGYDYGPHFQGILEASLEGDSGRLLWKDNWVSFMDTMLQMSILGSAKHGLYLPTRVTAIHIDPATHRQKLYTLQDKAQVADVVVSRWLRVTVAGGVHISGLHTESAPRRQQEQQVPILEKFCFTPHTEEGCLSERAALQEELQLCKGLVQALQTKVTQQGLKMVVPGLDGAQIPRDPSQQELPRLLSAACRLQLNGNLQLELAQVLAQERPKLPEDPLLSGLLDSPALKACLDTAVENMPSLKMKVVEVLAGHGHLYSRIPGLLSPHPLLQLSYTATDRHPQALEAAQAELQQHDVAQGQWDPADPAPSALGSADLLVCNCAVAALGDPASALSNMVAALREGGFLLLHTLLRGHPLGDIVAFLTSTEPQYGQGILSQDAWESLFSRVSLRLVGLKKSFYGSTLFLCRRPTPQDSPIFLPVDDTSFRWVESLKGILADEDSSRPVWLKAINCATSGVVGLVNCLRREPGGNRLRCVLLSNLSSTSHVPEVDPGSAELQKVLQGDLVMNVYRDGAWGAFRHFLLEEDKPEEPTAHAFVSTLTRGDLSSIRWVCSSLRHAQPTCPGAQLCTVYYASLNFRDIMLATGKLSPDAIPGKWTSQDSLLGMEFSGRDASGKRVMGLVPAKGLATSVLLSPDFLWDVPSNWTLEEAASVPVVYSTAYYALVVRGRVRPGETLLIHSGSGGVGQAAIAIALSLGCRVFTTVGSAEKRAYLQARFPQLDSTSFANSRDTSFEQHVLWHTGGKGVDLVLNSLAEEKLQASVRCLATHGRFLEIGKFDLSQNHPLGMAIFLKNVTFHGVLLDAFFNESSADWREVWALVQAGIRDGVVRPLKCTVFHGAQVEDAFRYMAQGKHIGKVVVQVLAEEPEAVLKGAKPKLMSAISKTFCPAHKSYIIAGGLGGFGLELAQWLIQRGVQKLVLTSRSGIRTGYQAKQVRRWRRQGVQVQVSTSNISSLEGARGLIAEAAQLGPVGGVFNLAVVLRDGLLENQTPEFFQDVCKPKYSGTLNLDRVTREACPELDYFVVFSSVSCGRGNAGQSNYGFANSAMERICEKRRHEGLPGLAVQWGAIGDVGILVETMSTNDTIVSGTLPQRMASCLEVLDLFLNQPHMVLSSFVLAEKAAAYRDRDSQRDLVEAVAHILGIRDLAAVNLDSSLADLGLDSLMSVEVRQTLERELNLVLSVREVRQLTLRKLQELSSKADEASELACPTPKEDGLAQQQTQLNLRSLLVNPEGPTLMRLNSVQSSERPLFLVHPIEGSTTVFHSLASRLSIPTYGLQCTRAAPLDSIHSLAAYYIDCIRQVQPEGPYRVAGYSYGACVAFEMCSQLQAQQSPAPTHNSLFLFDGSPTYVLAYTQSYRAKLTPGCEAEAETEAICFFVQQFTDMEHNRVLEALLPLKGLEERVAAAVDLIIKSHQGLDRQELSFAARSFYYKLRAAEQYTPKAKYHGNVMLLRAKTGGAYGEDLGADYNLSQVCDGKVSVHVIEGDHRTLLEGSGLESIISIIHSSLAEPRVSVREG

Fatty acid synthase [4] = target: T2, Fatty acid synthase; assay: inhibition of human FAS-TE enzyme activity – biochemical, kinetic fluorescence intensity, dose response (AID 624326); format: functional;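 note: rate of fluorescence rise from hydrolysis of a fluorogenic O-methyl fluorescein ester substrate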
Cytochrome P450 3A4 = Cytochrome P450 3A4 (Homo sapiens, UniProt P08684);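 note: CYP3A4 tested as one member of a cytochrome P450 panel screen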
Cytochrome P450 3A4, sequence (P08684 whole entry): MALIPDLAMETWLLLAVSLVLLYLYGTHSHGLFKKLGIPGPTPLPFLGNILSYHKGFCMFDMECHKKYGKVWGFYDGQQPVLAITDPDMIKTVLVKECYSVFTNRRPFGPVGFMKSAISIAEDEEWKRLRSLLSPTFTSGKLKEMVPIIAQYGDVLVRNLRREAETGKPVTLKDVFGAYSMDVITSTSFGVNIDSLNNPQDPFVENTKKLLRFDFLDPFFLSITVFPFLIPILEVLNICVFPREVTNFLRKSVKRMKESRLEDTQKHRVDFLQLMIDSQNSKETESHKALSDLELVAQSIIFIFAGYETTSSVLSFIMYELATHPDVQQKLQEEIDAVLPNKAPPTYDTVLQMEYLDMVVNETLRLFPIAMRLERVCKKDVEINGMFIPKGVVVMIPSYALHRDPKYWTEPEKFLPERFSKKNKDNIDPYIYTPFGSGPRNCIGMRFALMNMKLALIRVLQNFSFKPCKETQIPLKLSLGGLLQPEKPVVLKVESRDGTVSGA

[5] = Trypanosoma cruzi growth suppression in host cells – NIH3T3 host cells, beta-gal luminescence, confirmation (AID 2044); format: functional, cell-based;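 note: intracellular parasites grown in NIH/3T3 mouse fibroblasts as host cells; luminescent beta-galactosidase reporter signal from transgenic T. cruzi replicating inside host cells; inhibitors lower the luminescence signal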
[6] = NIH3T3 cell viability loss – ATP luminescence, mouse fibroblasts, counter-screen, dose response (AID 2010); format: functional, cell-based;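 note: cells exposed to compound for about 90 hours before reading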

Structure (SMILES) | EC50 [1] | IC50 [2] | IC50 (Fatty acid synthase [3]) | IC50 (Fatty acid synthase [4]) | other results
COc1ccc(CNC(=O)C2(c3ccc(Cl)cc3)CC2)cc1 | > 53 µM (inactive) | > 47.1 µM (inactive) | – | – | –
C[C@H](NC(=O)c1[nH]cnc1C(=O)N[C@@H](CCCCNC(=O)OC(C)(C)C)C(=O)OC(C)(C)C)C(=O)OCc1ccccc1 | – | – | 0.349 µM (active) | 0.176 µM (active) | –
O=C(CSc1nc2ccccc2n1S(=O)(=O)c1cccc([N+](=O)[O-])c1)NCCc1ccccc1 | – | – | 3.67 µM (active) | 2.4 µM (active) | –
COc1cccc(CN2CCC(Oc3ccc(C(=O)NCc4ccccn4)cc3)CC2)c1O | > 53 µM (inactive) | > 47.1 µM (inactive) | – | – | –
CCCN(C(=O)c1cc(Cl)nc2ccccc12)C1CCS(=O)(=O)C1 (centres undefined) | > 53 µM (inactive) | > 47.1 µM (inactive) | – | – | –
CC1(C)Cc2ccccc2C(c2cc3ccccc3oc2=O)=N1 | > 53 µM (inactive) | > 47.1 µM (inactive) | – | – | –
COc1ccccc1C(=O)COC(=O)c1c(-c2ccccc2)noc1C | > 53 µM (inactive) | > 47.1 µM (inactive) | – | – | –
COc1ccc(C(=O)Nc2cc([N+](=O)[O-])ccc2N2CCCC2)cc1 | – | – | 15.1 µM (active) | 12.3 µM (active) | –
O=C(NCCN1C(=O)S/C(=C\c2ccccc2)C1=O)C1CCN(S(=O)(=O)c2cccs2)CC1 | – | – | 16.2 µM (active) | 18.1 µM (active) | –
CC(C)(C)c1ccc(C(=O)CS(=O)(=O)c2ccccc2)cc1 | > 53 µM (inactive) | > 47.1 µM (inactive) | – | – | –
Cc1cc(C)c(C#N)c(SCC(=O)c2ccc(Cl)cc2Cl)n1 | – | – | 7.15 µM (active) | 4.77 µM (active) | AC50 (Cytochrome P450 3A4): 17.8 µM (inconclusive); EC50 [5]: 0.169 µM (active); EC50 [6]: > 60 µM (not active)
COc1ccccc1NC(=O)COC(=O)c1cc([N+](=O)[O-])ccc1N1CCCC1 | – | – | 5 µM (active) | 6.41 µM (active) | –
O=C(O)CC(NC(=O)C(c1ccccc1)c1ccccc1)c1cccc([N+](=O)[O-])c1 (centres undefined) | – | – | 9.02 µM (active) | 7.4 µM (active) | –
CN(CC(=O)Nc1ccc(F)cc1)C(=O)COC(=O)c1cc([N+](=O)[O-])ccc1N1CCOCC1 | – | – | 6.68 µM (active) | 7.99 µM (active) | –
Cc1c(C(=O)Nc2c(F)cccc2F)sc2ncn(CC(=O)N3CCCCC3)c(=O)c12 | > 53 µM (inactive) | > 47.1 µM (inactive) | – | – | –
O=C(COc1ccc(Cl)cc1Cl)Nc1ccccc1F | > 53 µM (inactive) | > 47.1 µM (inactive) | – | – | –
CCN(CC(=O)Nc1ccc(NC(C)=O)cc1)C(=O)c1ccc(=O)n(C)n1 | > 53 µM (inactive) | > 47.1 µM (inactive) | – | – | –
Cc1ccc(C(=O)N/N=C\c2ccccn2)cn1 | > 53 µM (inactive) | > 47.1 µM (inactive) | – | – | –
